# Assay results as given in article PMC5694347 (Clinical cancer research : an official journal of the …, 2015).
# Marks after values point to notes of the source that are not given here.
# Tested on: patients with relapsed and/or refractory lymphoma or MM
# Experiment: Safety: adverse events graded by NCI CTCAE version 3.0
# Details: for Patients with serious AEs (SAEs): eight patients
# [1] = Schedule B, n=17, high-level term
smiles,measurement,setting,value
NS(=O)(=O)OC[C@@H]1C[C@@H](n2ccc3c(N[C@H]4CCc5ccccc54)ncnc32)C[C@@H]1O [pevonedistat],"Abdominal discomfort, Grade ≥3","Schedule B, n=17",0 n (%)
same,"Anemia, All grades","Schedule B, n=17",3 (18) n (%)
same,"Anemia, Grade ≥3","Schedule B, n=17",1 (6) n (%)
same,"Any AE, All grades","Schedule B, n=17",17 (100) n (%)
same,"Any AE, Grade ≥3","Schedule B, n=17",12 (71) n (%)
same,"Asthenia, All grades","Schedule B, n=17",3 (18) n (%)
same,"Asthenia, Grade ≥3","Schedule B, n=17",0 n (%)
same,"Back pain, All grades","Schedule B, n=17",4 (24) n (%)
same,"Back pain, Grade ≥3","Schedule B, n=17",0 n (%)
same,"Blood alkaline phosphatase increased, All grades","Schedule B, n=17",1 (6) n (%)
same,"Blood alkaline phosphatase increased, Grade ≥3","Schedule B, n=17",0 n (%)
same,"Blood creatinine increased, All grades","Schedule B, n=17",0 n (%)
same,"Blood creatinine increased, Grade ≥3","Schedule B, n=17",0 n (%)
same,"Chills, All grades","Schedule B, n=17",6 (35) n (%)
same,"Chills, Grade ≥3","Schedule B, n=17",0 n (%)
same,"Constipation, All grades","Schedule B, n=17",5 (29) n (%)
same,"Constipation, Grade ≥3","Schedule B, n=17",0 n (%)
same,"Cough, All grades","Schedule B, n=17",5 (29) n (%)
same,"Cough, Grade ≥3","Schedule B, n=17",0 n (%)
same,"Decreased appetite, All grades","Schedule B, n=17",10 (59) n (%)
same,"Decreased appetite, Grade ≥3","Schedule B, n=17",0 n (%)
same,"Dehydration, All grades","Schedule B, n=17",3 (18) n (%)
same,"Dehydration, Grade ≥3","Schedule B, n=17",1 (6) n (%)
same,"Diarrhea, All grades","Schedule B, n=17",8 (47) n (%)
same,"Diarrhea, Grade ≥3","Schedule B, n=17",0 n (%)
same,"Dizziness, All grades","Schedule B, n=17",8 (47) n (%)
same,"Dizziness, Grade ≥3","Schedule B, n=17",0 n (%)
same,"Dyspepsia, All grades","Schedule B, n=17",3 (18) n (%)
same,"Dyspepsia, Grade ≥3","Schedule B, n=17",0 n (%)
same,"Dyspnea exertional, All grades","Schedule B, n=17",3 (18) n (%)
same,"Dyspnea exertional, Grade ≥3","Schedule B, n=17",0 n (%)
same,"Dyspnea, All grades","Schedule B, n=17",4 (24) n (%)
same,"Dyspnea, Grade ≥3","Schedule B, n=17",1 (6) n (%)
same,"Fatigue, All grades","Schedule B, n=17",12 (71) n (%)
same,"Fatigue, Grade ≥3","Schedule B, n=17",1 (6) n (%)
same,"Headache, All grades","Schedule B, n=17",9 (53) n (%)
same,"Headache, Grade ≥3","Schedule B, n=17",0 n (%)
same,"Hyperbilirubinemia, All grades","Schedule B, n=17",5 (29) n (%)
same,"Hyperbilirubinemia, Grade ≥3","Schedule B, n=17",1 (6) n (%)
same,"Hypercalcemia, All grades","Schedule B, n=17",1 (6) n (%)
same,"Hypercalcemia, Grade ≥3","Schedule B, n=17",0 n (%)
same,"Hyperkalemia, All grades","Schedule B, n=17",0 n (%)
same,"Hyperkalemia, Grade ≥3","Schedule B, n=17",0 n (%)
same,"Hypomagnesemia, All grades","Schedule B, n=17",1 (6) n (%)
same,"Hypomagnesemia, Grade ≥3","Schedule B, n=17",0 n (%)
same,"Hypophosphatemia, All grades","Schedule B, n=17",1 (6) n (%)
same,"Hypophosphatemia, Grade ≥3","Schedule B, n=17",1 (6) n (%)
same,"Insomnia, All grades","Schedule B, n=17",4 (24) n (%)
same,"Insomnia, Grade ≥3","Schedule B, n=17",0 n (%)
same,"Muscle spasms, All grades","Schedule B, n=17",10 (59) n (%)
same,"Muscle spasms, Grade ≥3","Schedule B, n=17",1 (6) n (%)
same,"Myalgia, All grades","Schedule B, n=17",10 (59) n (%)
same,"Myalgia, Grade ≥3","Schedule B, n=17",0 n (%)
same,"Nausea, All grades","Schedule B, n=17",13 (76) n (%)
same,"Nausea, Grade ≥3","Schedule B, n=17",0 n (%)
same,"Neutropenia, All grades","Schedule B, n=17",2 (12) n (%)
same,"Neutropenia, Grade ≥3","Schedule B, n=17",2 (12) n (%)
same,"Pain in extremity, All grades","Schedule B, n=17",5 (29) n (%)
same,"Pain in extremity, Grade ≥3","Schedule B, n=17",0 n (%)
same,"Pain, All grades","Schedule B, n=17",5 (29) n (%)
same,"Pain, Grade ≥3","Schedule B, n=17",1 (6) n (%)
same,"Paresthesia, All grades","Schedule B, n=17",5 (29) n (%)
same,"Paresthesia, Grade ≥3","Schedule B, n=17",0 n (%)
same,"Peripheral edema, All grades","Schedule B, n=17",3 (18) n (%)
same,"Peripheral edema, Grade ≥3","Schedule B, n=17",0 n (%)
same,"Pneumonia, All grades","Schedule B, n=17",3 (18) n (%)
same,"Pneumonia, Grade ≥3","Schedule B, n=17",2 (12) n (%)
same,"Productive cough, All grades","Schedule B, n=17",3 (18) n (%)
same,"Productive cough, Grade ≥3","Schedule B, n=17",0 n (%)
same,"Pyrexia, All grades","Schedule B, n=17",8 (47) n (%)
same,"Pyrexia, Grade ≥3","Schedule B, n=17",1 (6) n (%)
same,"Sinus tachycardia, All grades","Schedule B, n=17",3 (18) n (%)
same,"Sinus tachycardia, Grade ≥3","Schedule B, n=17",0 n (%)
same,"Thrombocytopenia, All grades","Schedule B, n=17",3 (18) n (%)
same,"Upper respiratory tract infection, All grades","Schedule B, n=17",3 (18) n (%)
same,"Upper respiratory tract infection, Grade ≥3","Schedule B, n=17",1 (6) n (%)
same,"Vision blurred, All grades","Schedule B, n=17",0 n (%)
same,"Vision blurred, Grade ≥3","Schedule B, n=17",0 n (%)
same,"Vomiting, All grades","Schedule B, n=17",10 (59) n (%)
same,"Vomiting, Grade ≥3","Schedule B, n=17",0 n (%)
same,"Weight decreased, All grades","Schedule B, n=17",3 (18) n (%)
same,"Weight decreased, Grade ≥3","Schedule B, n=17",0 n (%)
same,"Thrombocytopenia, Grade ≥3","Schedule B, n=17, 1 DLT",1 (6) ^a n (%)
same,"Peripheral neuropathies NEC, All grades",[1],2 (12) n (%)
same,"Peripheral neuropathies NEC, Grade ≥3",[1],0 n (%)
same,Treatment-related deaths,both schedules,no treatment-related deaths
same,Peripheral neuropathy rate,"overall, both schedules",11%
same,Grade ≥3 anemia,schedule A,19%
same,Patients who discontinued due to occurrence of an AE,schedule A,2 n
same,Patients with SAEs considered related to pevonedistat,schedule A,four
same,Patients with serious AEs (SAEs),schedule A,30%
same,Grade ≥3 neutropenia,schedule B,12%
same,Grade ≥3 pneumonia,schedule B,12%
same,Patients who discontinued due to occurrence of an AE,schedule B,1 n
same,Patients with serious AEs (SAEs),schedule B,47%
